Results on 10 compounds are retold here after patent publication US20230139171A1 (SITA Information Networking Computing UK Limited, priority 2019, published 2023).

In test [1] the target is T1, human TLR7 (Homo sapiens, UniProt Q9NYK1).
T1 construct: host or cells: HEK-Blue cells
T1 sequence (Q9NYK1 27-1049): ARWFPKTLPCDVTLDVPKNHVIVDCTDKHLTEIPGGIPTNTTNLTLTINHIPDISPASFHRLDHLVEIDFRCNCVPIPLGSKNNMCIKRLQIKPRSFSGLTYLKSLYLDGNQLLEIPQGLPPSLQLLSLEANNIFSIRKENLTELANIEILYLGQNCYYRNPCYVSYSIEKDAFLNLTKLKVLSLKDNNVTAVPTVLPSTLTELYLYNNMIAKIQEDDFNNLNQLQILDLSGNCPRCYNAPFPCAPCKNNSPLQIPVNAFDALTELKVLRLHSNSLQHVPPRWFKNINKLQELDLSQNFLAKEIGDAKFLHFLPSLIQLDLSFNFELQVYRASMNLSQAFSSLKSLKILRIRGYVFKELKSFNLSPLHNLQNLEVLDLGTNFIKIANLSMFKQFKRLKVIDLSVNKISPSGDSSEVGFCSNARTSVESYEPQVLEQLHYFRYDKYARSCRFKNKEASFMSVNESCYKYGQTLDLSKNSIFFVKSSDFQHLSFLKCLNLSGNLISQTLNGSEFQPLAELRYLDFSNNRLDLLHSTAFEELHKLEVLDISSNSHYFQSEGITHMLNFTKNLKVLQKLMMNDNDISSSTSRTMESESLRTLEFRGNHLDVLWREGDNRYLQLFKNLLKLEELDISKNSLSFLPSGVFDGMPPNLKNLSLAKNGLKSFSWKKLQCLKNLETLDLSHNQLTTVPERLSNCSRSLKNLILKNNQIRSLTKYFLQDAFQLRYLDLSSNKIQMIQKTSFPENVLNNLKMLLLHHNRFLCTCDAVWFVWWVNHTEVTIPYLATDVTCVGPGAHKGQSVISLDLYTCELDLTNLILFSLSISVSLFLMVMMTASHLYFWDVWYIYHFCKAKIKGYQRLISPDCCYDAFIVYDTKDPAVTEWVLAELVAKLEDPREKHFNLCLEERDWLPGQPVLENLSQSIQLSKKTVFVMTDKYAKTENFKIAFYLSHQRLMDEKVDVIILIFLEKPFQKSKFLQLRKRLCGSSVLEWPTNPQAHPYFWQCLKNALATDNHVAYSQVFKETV
Kind of test: TLR7 inhibition reporter assay (HEK-Blue cells, SEAP reporter, gardiquimod stimulation). Type of test: cell-based. Conditions: HEK-Blue cells overexpressing human TLR7, SEAP reporter, gardiquimod 7.5 μM; read-out: TLR7 IC50. As to the method:
(§1) TLR7/8/9 Inhibition Reporter Assays
(§2) HEK-Blue™-cells (Invivogen) overexpressing human TLR7, TLR8 or TLR9 receptors were used for screening inhibitors of these receptors using an inducible SEAP (secreted embryonic alkaline phosphatase) reporter gene under the control of the IFN-β minimal promoter fused to five NF-κB and AP-1-binding sites. Briefly, cells are seeded into Greiner 384 well plates (15000 cells per well for TLR7, 20,000 for TLR8 and 25,000 for TLR9) and then treated with test compounds in DMSO to yield a final dose response concentration range of 0.05 nM-50 μM. After a 30 minute compound pre-treatment at room temperature, the cells are then stimulated with a TLR7 ligand (gardiquimod at a final concentration of 7.5 μM), TLR8 ligand (R848 at a final concentration of 15.9 μM) or TLR9 ligand (ODN2006 at a final concentration of 5 nM) to activate NF-κB and AP-1 which induce the production of SEAP. After a 22 hour incubation at 37° C., 5% CO2, SEAP levels are determined with the addition of HEK-Blue™ Detection reagent (Invivogen), a cell culture medium that allows for detection of SEAP, according to manufacturer's specifications. The percent inhibition is determined as the % reduction in the HEK-Blue signal present in wells treated with agonist plus DMSO alone compared to wells treated with a known inhibitor.

Test [2] deals with T2, human TLR8 (Homo sapiens, UniProt Q9NR97).
T2 construct: host or cells: HEK-Blue cells
T2 sequence (Q9NR97 27-1041): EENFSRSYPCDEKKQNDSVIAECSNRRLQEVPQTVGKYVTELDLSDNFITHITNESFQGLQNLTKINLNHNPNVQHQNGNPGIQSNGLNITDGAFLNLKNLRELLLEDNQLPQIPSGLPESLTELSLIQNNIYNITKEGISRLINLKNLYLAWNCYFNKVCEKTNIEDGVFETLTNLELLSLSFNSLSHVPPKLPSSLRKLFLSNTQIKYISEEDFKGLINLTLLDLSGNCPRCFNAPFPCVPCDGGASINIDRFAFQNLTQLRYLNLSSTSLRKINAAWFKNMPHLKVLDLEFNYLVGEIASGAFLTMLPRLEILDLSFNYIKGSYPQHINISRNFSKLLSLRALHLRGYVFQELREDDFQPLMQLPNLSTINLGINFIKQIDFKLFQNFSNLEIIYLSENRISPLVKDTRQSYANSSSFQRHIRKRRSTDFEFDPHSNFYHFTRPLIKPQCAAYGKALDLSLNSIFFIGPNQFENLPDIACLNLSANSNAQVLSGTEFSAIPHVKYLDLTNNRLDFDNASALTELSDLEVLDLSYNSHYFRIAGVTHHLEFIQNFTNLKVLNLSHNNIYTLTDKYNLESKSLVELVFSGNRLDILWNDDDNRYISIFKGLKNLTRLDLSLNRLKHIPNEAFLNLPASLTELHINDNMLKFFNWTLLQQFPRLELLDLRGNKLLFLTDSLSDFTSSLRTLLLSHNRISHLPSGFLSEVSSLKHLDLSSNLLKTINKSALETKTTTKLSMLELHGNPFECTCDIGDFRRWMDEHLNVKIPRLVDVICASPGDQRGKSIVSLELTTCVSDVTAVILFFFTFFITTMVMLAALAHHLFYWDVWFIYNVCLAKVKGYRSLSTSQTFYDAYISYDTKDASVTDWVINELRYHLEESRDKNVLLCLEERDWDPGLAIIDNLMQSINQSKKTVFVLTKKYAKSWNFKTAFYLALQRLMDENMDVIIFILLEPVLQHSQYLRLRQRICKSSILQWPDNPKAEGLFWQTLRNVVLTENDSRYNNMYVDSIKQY
Kind of test: TLR8 inhibition reporter assay (HEK-Blue cells, SEAP reporter, R848 stimulation). Type of test: cell-based. Particulars: HEK-Blue cells overexpressing human TLR8, SEAP reporter, R848 15.9 μM; read-out: TLR8 IC50. The protocol: as §1, §2
For orientation: A reporter such as luciferase makes a cellular process visible.

A word on the IC50: it is the midpoint of a concentration-inhibition curve.

As for `CNC(=O)CN1CCN(c2nc3c(C(C)C)c(-c4cn5ncnc5c(C)c4C)[nH]c3s2)[C@@H](C)C1` [Example 342, (S)-2-(4-(5-(7,8-dimethyl-[1,2,4]triazolo[1,5-a]pyridin-6-yl)-6-isopropyl-4H-pyrrolo[3,2-d]thiazol-2-yl)-3-methylpiperazin-1-yl)-N-methylacetamide], the IC50 in test [1] is 19.6 nM; in test [2], 12.6 nM.
In the same order, the values of `Cc1c(-c2[nH]c3sc(N4CCN(CC(=O)N(C)C)C[C@@H]4C)nc3c2C(C)C)cn2ncnc2c1C` [Example 343, (S)-2-(4-(5-(7,8-dimethyl-[1,2,4]triazolo[1,5-a]pyridin-6-yl)-6-isopropyl-4H-pyrrolo[3,2-d]thiazol-2-yl)-3-methylpiperazin-1-yl)-N,N-dimethylacetamide] are 24.1 nM and 3.3 nM.
Taken in the same sequence, the figures for `Cc1c(-c2[nH]c3sc(N4CCN(CCS(C)(=O)=O)C[C@@H]4C)nc3c2C(C)C)cn2ncnc2c1C` [Example 344, (S)-5-(7,8-dimethyl-[1,2,4]triazolo[1,5-a]pyridin-6-yl)-6-isopropyl-2-(2-methyl-4-(2-(methylsulfonyl)ethyl)piperazin-1-yl)-4H-pyrrolo[3,2-d]thiazole] were 39 nM and 12.7 nM.
On to `Cc1c(-c2[nH]c3sc(N4CCN(CC(C)(C)O)C[C@@H]4C)nc3c2C(C)C)cn2ncnc2c1C` [Example 345, (S)-1-(4-(5-(7,8-dimethyl-[1,2,4]triazolo[1,5-a]pyridin-6-yl)-6-isopropyl-4H-pyrrolo[3,2-d]thiazol-2-yl)-3-methylpiperazin-1-yl)-2-methylpropan-2-ol], for which the IC50 was determined as 23.4 nM in test [1] and 3.12 nM in test [2].
Take `Cc1c(-c2[nH]c3sc(N4CCN(C(=O)C5CCS(=O)(=O)CC5)C[C@@H]4C)nc3c2C(C)C)cn2ncnc2c1C` [Example 347, (S)-(4-(5-(7,8-dimethyl-[1,2,4]triazolo[1,5-a]pyridin-6-yl)-6-isopropyl-4H-pyrrolo[3,2-d]thiazol-2-yl)-3-methylpiperazin-1-yl)(1,1-dioxidotetrahydro-2H-thiopyran-4-yl)methanone]: the values for the IC50 in test [1] and in test [2] were 22.9 nM and 44.5 nM, respectively.
Taken in the same sequence, the figures for `Cc1c(-c2[nH]c3sc(N4CCN(C5COC5)C[C@@H]4C)nc3c2C(C)C)cn2ncnc2c1C` [Example 348, (S)-5-(7,8-dimethyl-[1,2,4]triazolo[1,5-a]pyridin-6-yl)-6-isopropyl-2-(2-methyl-4-(oxetan-3-yl)piperazin-1-yl)-4H-pyrrolo[3,2-d]thiazole] were 19.1 nM and 22.4 nM.
As for `Cc1c(-c2[nH]c3sc(N4CCN(C5CCC5)C[C@@H]4C)nc3c2C(C)C)cn2ncnc2c1C` [Example 349], the half-inhibitory concentration (IC50) came to 91 nM in test [1] and 1.85 nM in test [2].
In the same order, the values of `Cc1cc(-c2[nH]c3sc(N4CCN(C(=O)CN(C)C)C[C@H]4C)nc3c2C(C)C)cn2ncnc12` [Example 360, (R)-2-(dimethylamino)-1-(4-(6-isopropyl-5-(8-methyl-[1,2,4]triazolo[1,5-a]pyridin-6-yl)-4H-pyrrolo[3,2-d]thiazol-2-yl)-3-methylpiperazin-1-yl)ethan-1-one] are 1220 nM and 1330 nM.
Taken in the same sequence, the figures for `Cc1c(-c2[nH]c3sc(C(=O)NCCCN4CCCC4=O)nc3c2C(C)C)cn2ncnc2c1C` [Example 371, 5-(7,8-dimethyl-[1,2,4]triazolo[1,5-a]pyridin-6-yl)-6-isopropyl-N-(3-(2-oxopyrrolidin-1-yl)propyl)-4H-pyrrolo[3,2-d]thiazole-2-carboxamide] were 72.1 nM and 29.4 nM.
Taken in the same sequence, the figures for `Cc1c(-c2[nH]c3sc(C(=O)N4CCCC4)nc3c2C(C)C)cn2ncnc2c1C` [Example 377, (5-(7,8-dimethyl-[1,2,4]triazolo[1,5-a]pyridin-6-yl)-6-isopropyl-4H-pyrrolo[3,2-d]thiazol-2-yl)(pyrrolidin-1-yl)methanone] were 56.9 nM and 18.2 nM.
